Data taken from the NIST ThermoML archive (doi:10.1016/j.jct.2013.10.034).

Test: excess molar enthalpy (molar enthalpy of mixing); xn = mol fraction of the nth substance listed
Conditions: 298.15 K, 100 kPa, Liquid, Calvet calorimetry

CCCC[N+]1(C)CCCCC1.N#C[N-]C#N [1-butyl-1-methylpiperidinium dicyanamide] + O
Conditions | excess molar enthalpy [kcal/mol]
x1 = 0.0639 | -0.0355
x1 = 0.0706 | -0.0403
x1 = 0.0846 | -0.0509
x1 = 0.101 | -0.0634
x1 = 0.1186 | -0.0769
x1 = 0.1379 | -0.0917
x1 = 0.1607 | -0.109
x1 = 0.1873 | -0.127
x1 = 0.2173 | -0.145
x1 = 0.249 | -0.16
x1 = 0.2797 | -0.172
x1 = 0.3103 | -0.179
x1 = 0.3414 | -0.183
x1 = 0.371 | -0.185
x1 = 0.4062 | -0.184
x1 = 0.4376 | -0.181
x1 = 0.4741 | -0.176
x1 = 0.5173 | -0.167
x1 = 0.5418 | -0.162
x1 = 0.5687 | -0.155
x1 = 0.5984 | -0.146
x1 = 0.6314 | -0.136
x1 = 0.6683 | -0.124
x1 = 0.6951 | -0.115
x1 = 0.7241 | -0.105
x1 = 0.7557 | -0.0942
x1 = 0.7902 | -0.0816
x1 = 0.8081 | -0.0749
x1 = 0.8268 | -0.0677
x1 = 0.8465 | -0.0603
x1 = 0.8671 | -0.0529
x1 = 0.8887 | -0.0446
x1 = 0.9114 | -0.0354
x1 = 0.9354 | -0.0256
x1 = 0.9606 | -0.0152
x1 = 0.9872 | -0.00537

CCCC[N+]1(C)CCCC1.N#CN=C=[N-] [1-butyl-1-methylpyrrolidinium dicyanamide] + O
Conditions | excess molar enthalpy [kcal/mol]
x1 = 0.0674 | -0.0479
x1 = 0.0744 | -0.0542
x1 = 0.0892 | -0.0681
x1 = 0.1064 | -0.0843
x1 = 0.1248 | -0.102
x1 = 0.145 | -0.121
x1 = 0.1688 | -0.142
x1 = 0.1964 | -0.164
x1 = 0.2275 | -0.185
x1 = 0.2604 | -0.203
x1 = 0.2921 | -0.215
x1 = 0.3236 | -0.223
x1 = 0.3554 | -0.227
x1 = 0.3857 | -0.228
x1 = 0.4217 | -0.225
x1 = 0.4535 | -0.22
x1 = 0.4906 | -0.212
x1 = 0.5342 | -0.2
x1 = 0.5589 | -0.192
x1 = 0.5859 | -0.183
x1 = 0.6157 | -0.172
x1 = 0.6486 | -0.159
x1 = 0.6853 | -0.144
x1 = 0.7119 | -0.132
x1 = 0.7406 | -0.119
x1 = 0.7718 | -0.106
x1 = 0.8057 | -0.0907
x1 = 0.8233 | -0.0828
x1 = 0.8417 | -0.0752
x1 = 0.8609 | -0.0662
x1 = 0.881 | -0.0564
x1 = 0.9021 | -0.046
x1 = 0.9243 | -0.0352
x1 = 0.9475 | -0.0238
x1 = 0.9719 | -0.0113
x1 = 0.9976 | -0.000599
